Measured values published in PMC8126888 (RSC Medicinal Chemistry, 2020).
Like-named read-outs stand apart in the source and are kept apart here.

Key:
[1] = tested on: primary peritoneal mouse macrophages (PMM); assay: cells; details: Macrophage, read-out: PMM IC50
in vitro [2] = details: human, THP-1 cells differentiated with PMA
in vitro [3] = details: human
in vitro [4] = details: human, HepG2 cells
[5] = tested on: Leishmania infantum MHOM/MA(BE)/67/ITMAP263 intracellular amastigotes; assay: microbe, parasite or virus in culture; details: Macrophage, in Mus musculus
[6] = tested on: L. donovani MHOM/ET/67/L82 intracellular amastigotes; assay: microbe, parasite or virus in culture; details: Leishmania donovani, read-out: L. donovani MHOM/ET/67/L82 intracellular amastigotes IC50
[7] = tested on: axenic L. don. amastigotes (MHOM/SD/62/1S-CL2, LdBOB); assay: microbe, parasite or virus in culture; details: Leishmania donovani
[8] = tested on: L. donovani MHOM/SD/62/1SCL2D intracellular amastigotes; assay: microbe, parasite or virus in culture; details: Leishmania donovani, read-out: L. donovani MHOM/SD/62/1SCL2D intracellular amastigotes IC50
physchem = details: HPLC, Ascentis Express RP Amide column, pH 7.4, eLogD, experimental
in vitro [9] = details: human, HFF-1 cells
in vitro [10] = details: human, HepG2 cells; remark: listed apart in the source
[11] = tested on: Leishmania infantum (MHOM/MA/67/ITMAP-263) intracellular amastigotes in THP-1; assay: microbe, parasite or virus in culture; details: THP-1, read-out: L. infantum MHOM/MA/67/ITMAP263 intracellular amastigotes THP-1 cells IC50
[12] = tested on: Trypanosoma cruzi, Tulahuen CL2, beta-galactosidase strain; assay: microbe, parasite or virus in culture; details: MRC5, read-out: T. cruzi Tulahuen C4 (LacZ) IC50
[13] = tested on: Leishmania infantum MHOM/MA(BE)/67/ITMAP263 intracellular amastigotes; details: for IC50: read-out: L. infantum MHOM/MA(BE)/67/ITMAP263 intracellular amastigotes IC50; for L. Inf. pIC50: from L. infantum intracellular amastigote IC50
[14] = tested on: L. donovani MHOM/ET/67/L82 intracellular amastigotes; details: read-out: L. donovani MHOM/ET/67/L82 intracellular amastigotes IC50
[15] = tested on: primary peritoneal mouse macrophages (PMM); details: PMM IC50 / L. infantum IC50
MRC-5SV2 cells = assay: Cytotoxicity assay on MRC-5SV2 cells (resazurin)
[16] = tested on: primary peritoneal mouse macrophages (PMM); assay: Cytotoxicity to PMM (microscopic scoring within susceptibility assay)
in vitro [17] = details: human, s9, pH 7.4, Clint human mic., Fig. 2; human microsomes (S9 fractions)
in vitro [18] = details: mouse, s9, pH 7.4, Clint mouse mic., Fig. 2; mouse microsomes (S9 fractions)
[19] = read-out: L. Inf. pIC50 (converted)
[20] = read-out: L. infantum MHOM/MA(BE)/67/ITMAP263 intracellular amastigotes IC50
[21] = read-out: L. donovani MHOM/SD/62/1SCL2D axenic-cidal amastigotes IC50
[22] = read-out: L. Inf. pIC50, L. infantum intracellular amastigotes (converted)
[23] = read-out: L. infantum MHOM/MA(BE)/67/ITMAP263 intracellular amastigotes IC50, intracellular amastigotes
[24] = read-out: L. inf. pIC50, intracellular amastigotes in PMM (converted), geometric mean of a minimum of two experiments ± standard error
[25] = read-out: L. don. pIC50 (converted)

| SMILES | IC50 [1] | CC50 at 3 days (in vitro [3]) | IC50 [13] | IC50 [14] | SI (vs PMM) [15] | CC50 (MRC-5SV2 cells) | IC50 [16] | also measured |
| --- | --- | --- | --- | --- | --- | --- | --- | --- |
| CCCCOc1cc(C)c(Cl)cc1S(=O)(=O)NCc1cccs1 [DNDI0002620367] | > 32 µM | 4.56 µM |  |  |  |  |  | CC50 at 120 h (in vitro [2]): > 50 µM; CC50 (in vitro [4]): > 50 µM; IC50 [5, 19]: 0.794 µM; IC50 [5, 20]: 0.79 µM; IC50 [6]: 5.38 µM; IC50 [7, 21]: 11 µM; IC50 [8]: 22 µM |
| O=S1(=O)c2ccccc2[C@H](O)[C@H](Cc2ccccc2)N1Cc1ccccc1 [DNDI0003578379] | > 64 µM | 29.7 µM |  |  |  |  |  | chromatographic logD (physchem): 3.9; CC50 at 120 h (in vitro [2]): 39.4 µM; CC50 (in vitro [9]): 27 µM; CC50 (in vitro [10]): > 64 µM; IC50 [5, 22]: 13.5 µM; IC50 [5, 23]: 13.5 µM; IC50 [11]: 12.1 µM; IC50 [12]: 6.7 µM |
| Cc1nnc2ccc(S(=O)(=O)N(Cc3cccc(F)c3)c3ccc4c(c3)OCO4)cn12 [DNDI0003321887] |  |  |  |  |  |  |  | IC50 [7, 21]: > 30 µM |
| COc1cc(S(=O)(=O)NC(C)c2ccccc2)c(OC)cc1C (centres unmarked) [DNDI0002622495] | > 32 µM | > 32 µM |  |  |  |  |  | IC50 [5, 19]: > 32 µM; IC50 [5, 20]: > 32 µM; IC50 [6]: > 32 µM; IC50 [12]: > 32 µM |
| COc1ccc(S(=O)(=O)N(C)C)cc1NC(=O)C1Cc2ccccc2O1 (centres unmarked) [Compound Z109062150] |  |  | > 32 µM | > 32 µM | 1 | > 32 µM | > 32 µM |  |
| CCCOc1cc(C)c(C)cc1S(=O)(=O)NCC1CCCO1 (centres unmarked) [DNDI0002622936] | > 32 µM | > 32 µM |  |  |  |  |  | IC50 [5, 19]: 25.1 µM; IC50 [5, 20]: 25.4 µM; IC50 [6]: > 32 µM; IC50 [12]: > 32 µM |
| CCCCOc1cc(C)c(Cl)cc1S(=O)(=O)NCc1cccnc1 [DNDI0002558122] | > 32 µM | > 32 µM |  |  |  |  |  | IC50 [5, 19]: 16.6 µM; IC50 [5, 20]: 16.6 µM; IC50 [6]: 25.4 µM |
| COc1cc(C)c(C)cc1S(=O)(=O)NC1CCCCC1 [Compound Z1542834122] |  |  | > 32 µM | > 32 µM | 1 | > 32 µM | > 32 µM |  |
| CCc1c(C(=O)N2CCc3ccc(S(=O)(=O)NC)cc32)[nH]c(C)c1C(C)=O [Compound Z1262206860] |  |  | > 32 µM | > 32 µM | 1 | > 32 µM | > 32 µM |  |
| CCCCCOc1cc(C)c(C)cc1S(=O)(=O)NC1CC(C)(C)NC(C)(C)C1 [Compound Z2035103903] |  |  | 4.76 µM | 16.2 µM | 7 | 10.9 µM | > 32 µM | L. Inf. pIC50 [13]: 5.32 |
| CCCCCOc1cc(C)c(C)cc1S(=O)(=O)NC1CCCCC1 [Compound Z1201712752] |  |  | 1.04 µM | 4.32 µM | 31 | 26.1 µM | > 32 µM | L. Inf. pIC50 [13]: 5.98 |
| COc1cc(S(=O)(=O)N2CCN(Cc3ccccc3)CC2)c(OC)cc1C [Compound Z1532943652] |  |  | > 32 µM | > 32 µM | 1 | > 32 µM | > 32 µM |  |
| CN(C)S(=O)(=O)c1cccc(NC(=O)CN2CCCc3ccccc32)c1 [Compound Z46159369] |  |  | > 32 µM | > 32 µM | 1 | > 32 µM | > 32 µM |  |
| CCCCCOc1cc(C)c(Cl)cc1S(=O)(=O)NCc1cccs1 [Compound 7] |  |  |  |  |  |  |  | microsomal CLint at 0.5 μM (in vitro [17]): 624 µL/min/mg; microsomal CLint at 0.5 μM (in vitro [18]): 693 µL/min/mg; IC50 [5, 24]: 0.447 µM; IC50 [7, 25]: 4.37 µM |
| O=S(=O)(c1ccc2nncn2c1)N(Cc1ccccc1F)c1ccc2c(c1)OCO2 [DNDI0003321889] |  |  |  |  |  |  |  | IC50 [7, 21]: > 30 µM |
| CCCCCOc1cc(C)c(Cl)cc1S(=O)(=O)NCc1ccco1 [DNDI0002567970] | > 32 µM | 11.7 µM |  |  |  |  |  | CC50 at 120 h (in vitro [2]): > 50 µM; CC50 (in vitro [4]): > 50 µM; IC50 [5, 19]: 1.07 µM; IC50 [5, 20]: 1.08 µM; IC50 [6]: 4.76 µM; IC50 [7, 21]: 12 µM; IC50 [8]: 48 µM |

| SMILES | IC50 [1] | CC50 at 3 days (in vitro [3]) | IC50 [13] | IC50 [14] | SI (vs PMM) [15] | CC50 (MRC-5SV2 cells) | IC50 [16] | also measured |
| --- | --- | --- | --- | --- | --- | --- | --- | --- |
| COc1cc(S(=O)(=O)N(Cc2ccccc2)Cc2ccccc2)c(OC)cc1C [Compound 6] |  |  |  |  |  |  |  | microsomal CLint at 0.5 μM (in vitro [17]): 828 µL/min/mg; microsomal CLint at 0.5 μM (in vitro [18]): 1080 µL/min/mg; IC50 [5, 24]: 0.501 µM; IC50 [7, 25]: 1.51 µM |
| CCCCCOc1cc(C)c(Cl)cc1S(N)(=O)=O [Compound Z1724003560] |  |  | > 32 µM | > 32 µM | 1 | > 32 µM | > 32 µM |  |
| CCN(Cc1ccccc1)S(=O)(=O)c1cc(OC)c(C)cc1OC [Compound Z2235810678] |  |  | 1.08 µM | 6.35 µM | 30 | > 32 µM | > 32 µM | L. Inf. pIC50 [13]: 5.97 |
| CCCCOc1cc(C)c(C(C)C)cc1S(=O)(=O)NC1CCCCC1 [Compound Z1346174753] |  |  | 1.01 µM | 3.39 µM | 16 | 3.74 µM | 16 µM | L. Inf. pIC50 [13]: 6 |
| CCN(CC)S(=O)(=O)c1ccc(OC)c(NC(=O)CNc2cccc3c2CCCC3)c1 [Compound Z133511332] |  |  | > 32 µM | > 32 µM | 1 | > 32 µM | > 32 µM |  |
| CCN(CC)S(=O)(=O)c1ccc(OC)c(NC(=O)CN(C)c2ccccc2)c1 [Compound Z46175669] |  |  | > 32 µM | > 32 µM | 1 | > 32 µM | > 32 µM |  |
| O=S1(=O)c2ccccc2[C@H](O)[C@@H](Cc2ccccc2)N1Cc1ccccc1 [DNDI0003578378] | > 64 µM | > 64 µM |  |  |  |  |  | chromatographic logD (physchem): 4.2; CC50 at 120 h (in vitro [2]): 39.7 µM; CC50 (in vitro [9]): > 64 µM; CC50 (in vitro [10]): 63.9 µM; IC50 [5, 22]: 8.91 µM; IC50 [5, 23]: 8.88 µM; IC50 [11]: 19.5 µM; IC50 [12]: 7.67 µM |
| COc1ccc(S(=O)(=O)N(C)C)cc1NC(=O)Cn1c(=O)oc2ccccc21 [Compound Z15399918] |  |  | > 32 µM | > 32 µM | 1 | > 32 µM | > 32 µM |  |
| CCCCCOc1cc(C)c(C)cc1S(=O)(=O)NC1CCCC1 [Compound 8] |  |  |  |  |  |  |  | microsomal CLint at 0.5 μM (in vitro [17]): 567 µL/min/mg; microsomal CLint at 0.5 μM (in vitro [18]): 416 µL/min/mg; IC50 [5, 24]: 0.589 µM; IC50 [7, 25]: 12 µM |
| COc1cc(S(=O)(=O)NCc2ccccc2)c(OC)cc1C [DNDI0002564850] | > 32 µM | > 32 µM |  |  |  |  |  | IC50 [5, 19]: > 32 µM; IC50 [5, 20]: > 32 µM; IC50 [6]: > 32 µM; IC50 [12]: > 32 µM |
| CCCOc1cc(C)c(C)cc1S(=O)(=O)NC1CCCC1 [DNDI0002550535] | > 32 µM | > 32 µM |  |  |  |  |  | IC50 [5, 19]: > 32 µM; IC50 [5, 20]: > 32 µM; IC50 [6]: > 32 µM; IC50 [12]: > 32 µM |
| CCCOc1cc(C)c(Cl)cc1S(=O)(=O)NCc1cccs1 [DNDI0002572626] | > 32 µM | > 32 µM |  |  |  |  |  | IC50 [5, 19]: 25.1 µM; IC50 [5, 20]: 25.4 µM; IC50 [6]: > 32 µM; IC50 [12]: > 32 µM |
| CCOc1cc(S(=O)(=O)N(Cc2ccccc2)Cc2ccccc2)c(OCC)cc1C [Compound Z1198037468] |  |  | 0.87 µM | 25.4 µM | 37 | > 32 µM | > 32 µM | L. Inf. pIC50 [13]: 6.06 |
| COc1ccc(S(=O)(=O)N(C)C)cc1NC(=O)Cn1c(C)cc2ccccc21 [Compound Z109062140] |  |  | > 32 µM | > 32 µM | 1 | > 32 µM | > 32 µM |  |
| CCCOc1cc(C)c(C)cc1S(=O)(=O)NC1CCCCC1 [Compound Z1198524053] |  |  | 5.38 µM | > 32 µM | 6 | > 32 µM | > 32 µM | L. Inf. pIC50 [13]: 5.27 |
